Test results as given in ChEMBL document CHEMBL4145445, “Design, synthesis and biological assessment of new thiazolylhydrazine derivatives as selective and reversible hMAO-A inhibitors” (Eur J Med Chem, 2018).

Key:
[1] = target: T1, Amine oxidase [flavin-containing] A (Homo sapiens, UniProt P21397); test: Inhibition of human MAO-A using tyramine hydrochloride as substrate after 30 mins by Amplex Red reagent based horseradish peroxidase enzyme-coupled fluorescence assay
T1 sequence (P21397 whole entry): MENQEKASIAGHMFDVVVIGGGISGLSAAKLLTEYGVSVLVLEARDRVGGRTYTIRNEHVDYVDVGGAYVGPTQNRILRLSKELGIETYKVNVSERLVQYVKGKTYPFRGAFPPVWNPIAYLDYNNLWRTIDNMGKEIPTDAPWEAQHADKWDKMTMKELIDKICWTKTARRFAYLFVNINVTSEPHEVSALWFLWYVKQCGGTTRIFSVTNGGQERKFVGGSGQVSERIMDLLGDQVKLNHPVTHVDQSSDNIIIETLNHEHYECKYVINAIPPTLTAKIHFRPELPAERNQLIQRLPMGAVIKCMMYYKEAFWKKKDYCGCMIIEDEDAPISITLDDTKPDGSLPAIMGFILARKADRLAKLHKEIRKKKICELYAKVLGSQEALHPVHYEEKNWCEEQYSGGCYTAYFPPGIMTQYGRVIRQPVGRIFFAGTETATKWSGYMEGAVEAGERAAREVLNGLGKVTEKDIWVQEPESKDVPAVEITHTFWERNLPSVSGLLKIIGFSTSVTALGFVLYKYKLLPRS

[2] = target: T2, Amine oxidase [flavin-containing] B (Homo sapiens, UniProt P27338); test: Inhibition of human MAO-B using tyramine hydrochloride as substrate after 30 mins by Amplex Red reagent based horseradish peroxidase enzyme-coupled fluorescence assay
T2 sequence (P27338 whole entry): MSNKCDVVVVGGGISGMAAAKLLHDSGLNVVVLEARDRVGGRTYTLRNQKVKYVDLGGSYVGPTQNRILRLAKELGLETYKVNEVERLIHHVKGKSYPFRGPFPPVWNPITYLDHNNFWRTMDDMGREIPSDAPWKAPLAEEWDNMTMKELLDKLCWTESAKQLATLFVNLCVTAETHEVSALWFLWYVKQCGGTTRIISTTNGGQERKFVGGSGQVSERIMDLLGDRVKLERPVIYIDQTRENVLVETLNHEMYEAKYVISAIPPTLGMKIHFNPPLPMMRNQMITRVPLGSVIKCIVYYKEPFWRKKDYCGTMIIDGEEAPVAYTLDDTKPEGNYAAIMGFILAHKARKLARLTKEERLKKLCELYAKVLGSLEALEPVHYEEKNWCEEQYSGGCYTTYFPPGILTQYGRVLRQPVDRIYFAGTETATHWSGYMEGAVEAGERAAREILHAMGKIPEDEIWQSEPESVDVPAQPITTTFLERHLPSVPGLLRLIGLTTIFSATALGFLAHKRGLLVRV

[3] = target: T1, Amine oxidase [flavin-containing] A; test: Inhibition of human MAO-A at 10^-4 to 10^-3 M using tyramine hydrochloride as substrate after 30 mins by Amplex Red reagent based horseradish peroxidase enzyme-coupled fluorescence assay relative to control; details: 0.5 h
Homo sapiens = species: Homo sapiens; test: Selectivity index, ratio of IC50 for human MAO-B to IC50 for human MAO-A
[4] = target: T2, Amine oxidase [flavin-containing] B; test: Inhibition of human MAO-B at 10^-4 to 10^-3 M using tyramine hydrochloride as substrate after 30 mins by Amplex Red reagent based horseradish peroxidase enzyme-coupled fluorescence assay relative to control; details: 0.5 h
Salmonella typhimurium [5] = test: Genotoxicity in Salmonella typhimurium TA100 assessed as increase in revertant colonies at 0.625 mg/ml in presence of Sprague-Dawley rat liver S9 fraction by Ames test relative to basal level; assay type: toxicity, organism-based; details: salmonella enterica subsp. enterica serovar typhimurium
Salmonella typhimurium [6] = test: Genotoxicity in Salmonella typhimurium TA98 assessed as increase in revertant colonies at 1.25 mg/ml in absence of Sprague-Dawley rat liver S9 fraction by Ames test relative to basal level; assay type: toxicity, organism-based; details: salmonella enterica subsp. enterica serovar typhimurium
Salmonella typhimurium [7] = test: Genotoxicity in Salmonella typhimurium TA100 assessed as increase in revertant colonies at 0.156 mg/ml in absence of Sprague-Dawley rat liver S9 fraction by Ames test relative to basal level; assay type: toxicity, organism-based; details: salmonella enterica subsp. enterica serovar typhimurium
[8] = target: T1, Amine oxidase [flavin-containing] A; test: Reversible-competitive inhibition of human MAO-A using varying levels of tyramine as substrate after 30 mins by Lineweaver-Burk plot
Salmonella typhimurium [9] = test: Genotoxicity in Salmonella typhimurium TA98 assessed as increase in revertant colonies at 0.625 mg/ml in presence of Sprague-Dawley rat liver S9 fraction by Ames test relative to basal level; assay type: toxicity, organism-based; details: salmonella enterica subsp. enterica serovar typhimurium
Salmonella typhimurium [10] = test: Genotoxicity in Salmonella typhimurium TA98 assessed as increase in revertant colonies at 0.156 mg/ml in presence of Sprague-Dawley rat liver S9 fraction by Ames test relative to basal level; assay type: toxicity, organism-based; details: salmonella enterica subsp. enterica serovar typhimurium
Salmonella typhimurium [11] = test: Genotoxicity in Salmonella typhimurium TA98 assessed as increase in revertant colonies at 5 mg/ml in presence of Sprague-Dawley rat liver S9 fraction by Ames test relative to basal level; assay type: toxicity, organism-based; details: salmonella enterica subsp. enterica serovar typhimurium
Salmonella typhimurium [12] = test: Genotoxicity in Salmonella typhimurium TA98 assessed as increase in revertant colonies at 0.625 mg/ml in absence of Sprague-Dawley rat liver S9 fraction by Ames test relative to basal level; assay type: toxicity, organism-based; details: salmonella enterica subsp. enterica serovar typhimurium
Salmonella typhimurium [13] = test: Genotoxicity in Salmonella typhimurium TA100 assessed as increase in revertant colonies at 2.5 mg/ml in presence of Sprague-Dawley rat liver S9 fraction by Ames test relative to basal level; assay type: toxicity, organism-based; details: salmonella enterica subsp. enterica serovar typhimurium
Salmonella typhimurium [14] = test: Genotoxicity in Salmonella typhimurium TA100 assessed as increase in revertant colonies at 0.3125 mg/ml in presence of Sprague-Dawley rat liver S9 fraction by Ames test relative to basal level; assay type: toxicity, organism-based; details: salmonella enterica subsp. enterica serovar typhimurium
Salmonella typhimurium [15] = test: Genotoxicity in Salmonella typhimurium TA100 assessed as increase in revertant colonies at 0.625 mg/ml in absence of Sprague-Dawley rat liver S9 fraction by Ames test relative to basal level; assay type: toxicity, organism-based; details: salmonella enterica subsp. enterica serovar typhimurium
Salmonella typhimurium [16] = test: Genotoxicity in Salmonella typhimurium TA100 assessed as increase in revertant colonies at 2.5 mg/ml in absence of Sprague-Dawley rat liver S9 fraction by Ames test relative to basal level; assay type: toxicity, organism-based; details: salmonella enterica subsp. enterica serovar typhimurium
Salmonella typhimurium [17] = test: Genotoxicity in Salmonella typhimurium TA100 assessed as increase in revertant colonies at 0.3125 mg/ml in absence of Sprague-Dawley rat liver S9 fraction by Ames test relative to basal level; assay type: toxicity, organism-based; details: salmonella enterica subsp. enterica serovar typhimurium
Salmonella typhimurium [18] = test: Genotoxicity in Salmonella typhimurium TA98 assessed as increase in revertant colonies at 5 mg/ml in absence of Sprague-Dawley rat liver S9 fraction by Ames test relative to basal level; assay type: toxicity, organism-based; details: salmonella enterica subsp. enterica serovar typhimurium
Salmonella typhimurium [19] = test: Genotoxicity in Salmonella typhimurium TA100 assessed as increase in revertant colonies at 5 mg/ml in absence of Sprague-Dawley rat liver S9 fraction by Ames test relative to basal level; assay type: toxicity, organism-based; details: salmonella enterica subsp. enterica serovar typhimurium
Salmonella typhimurium [20] = test: Genotoxicity in Salmonella typhimurium TA98 assessed as increase in revertant colonies at 2.5 mg/ml in presence of Sprague-Dawley rat liver S9 fraction by Ames test relative to basal level; assay type: toxicity, organism-based; details: salmonella enterica subsp. enterica serovar typhimurium
Salmonella typhimurium [21] = test: Genotoxicity in Salmonella typhimurium TA98 assessed as increase in revertant colonies at 0.3125 mg/ml in presence of Sprague-Dawley rat liver S9 fraction by Ames test relative to basal level; assay type: toxicity, organism-based; details: salmonella enterica subsp. enterica serovar typhimurium
Salmonella typhimurium [22] = test: Genotoxicity in Salmonella typhimurium TA98 assessed as increase in revertant colonies at 1.25 mg/ml in presence of Sprague-Dawley rat liver S9 fraction by Ames test relative to basal level; assay type: toxicity, organism-based; details: salmonella enterica subsp. enterica serovar typhimurium
Salmonella typhimurium [23] = test: Genotoxicity in Salmonella typhimurium TA98 assessed as increase in revertant colonies at 0.3125 mg/ml in absence of Sprague-Dawley rat liver S9 fraction by Ames test relative to basal level; assay type: toxicity, organism-based; details: salmonella enterica subsp. enterica serovar typhimurium
Salmonella typhimurium [24] = test: Genotoxicity in Salmonella typhimurium TA98 assessed as increase in revertant colonies at 2.5 mg/ml in absence of Sprague-Dawley rat liver S9 fraction by Ames test relative to basal level; assay type: toxicity, organism-based; details: salmonella enterica subsp. enterica serovar typhimurium
Salmonella typhimurium [25] = test: Genotoxicity in Salmonella typhimurium TA100 assessed as increase in revertant colonies at 0.156 mg/ml in presence of Sprague-Dawley rat liver S9 fraction by Ames test relative to basal level; assay type: toxicity, organism-based; details: salmonella enterica subsp. enterica serovar typhimurium
Salmonella typhimurium [26] = test: Genotoxicity in Salmonella typhimurium TA100 assessed as increase in revertant colonies at 1.25 mg/ml in absence of Sprague-Dawley rat liver S9 fraction by Ames test relative to basal level; assay type: toxicity, organism-based; details: salmonella enterica subsp. enterica serovar typhimurium
Salmonella typhimurium [27] = test: Genotoxicity in Salmonella typhimurium TA100 assessed as increase in revertant colonies at 5 mg/ml in presence of Sprague-Dawley rat liver S9 fraction by Ames test relative to basal level; assay type: toxicity, organism-based; details: salmonella enterica subsp. enterica serovar typhimurium
Salmonella typhimurium [28] = test: Genotoxicity in Salmonella typhimurium TA98 assessed as increase in revertant colonies at 0.156 mg/ml in absence of Sprague-Dawley rat liver S9 fraction by Ames test relative to basal level; assay type: toxicity, organism-based; details: salmonella enterica subsp. enterica serovar typhimurium
Salmonella typhimurium [29] = test: Genotoxicity in Salmonella typhimurium TA100 assessed as increase in revertant colonies at 1.25 mg/ml in presence of Sprague-Dawley rat liver S9 fraction by Ames test relative to basal level; assay type: toxicity, organism-based; details: salmonella enterica subsp. enterica serovar typhimurium
NIH3T3 = test: Cytotoxicity against mouse NIH/3T3 cells by MTT assay; assay type: cell-based

`C(=N\Nc1nc(-c2ccccc2)cs1)/c1ccc(N2CCCC2)cc1` was tested, and the IC50 [1] was 25.6 µM, the IC50 [2] was greater than 1000 µM and the “inhibition (INH)” value [3] was greater than 50%. For the same molecule, the Ratio IC50 (Homo sapiens) was greater than 39.1.

For `Cc1ccc(-c2csc(N/N=C/c3ccc(N4CCCC4)cc3)n2)cc1`, the IC50 [1] was 20 µM, the IC50 [2] was greater than 100 µM and the “inhibition (INH)” value [3] was greater than 50%. The Ratio IC50 (Homo sapiens) was greater than 4.99.

In the case of `Clc1ccc(-c2csc(N/N=C/c3ccc(N4CCCC4)cc3)n2)cc1`, the IC50 [1] is reported as 45.1 µM, the IC50 [2] is reported as 761 µM and the “inhibition (INH)” value [3] is reported as greater than 50%. For the same molecule, the Ratio IC50 (Homo sapiens) was 16.9 and the “inhibition (INH)” value [4] was greater than 50%.

With `Fc1ccc(-c2csc(N/N=C/c3ccc(N4CCOCC4)cc3)n2)cc1` the “fold change (FC)” value (Salmonella typhimurium [5]) was 1.12, the “fold change (FC)” value (Salmonella typhimurium [6]) was 2 and the “fold change (FC)” value (Salmonella typhimurium [7]) was 1.11. For the same molecule, the IC50 [1] was 0.012 µM, the Ki [8] was 0.0066 µM and the IC50 [2] was 14.6 µM. The “fold change (FC)” value (Salmonella typhimurium [9]) was 6.97, the “fold change (FC)” value (Salmonella typhimurium [10]) was 4.38 and the “fold change (FC)” value (Salmonella typhimurium [11]) was 5.81. For the same molecule, the “inhibition (INH)” value [3] was greater than 50%, the “fold change (FC)” value (Salmonella typhimurium [12]) was 1.59 and the “fold change (FC)” value (Salmonella typhimurium [13]) was 0.96. For the same molecule, the “fold change (FC)” value (Salmonella typhimurium [14]) was 1.01, the “fold change (FC)” value (Salmonella typhimurium [15]) was 1.11 and the “fold change (FC)” value (Salmonella typhimurium [16]) was 0.83. The Ratio IC50 (Homo sapiens) was 1210, the “fold change (FC)” value (Salmonella typhimurium [17]) was 0.56 and the “inhibition (INH)” value [4] was greater than 50%. The “fold change (FC)” value (Salmonella typhimurium [18]) was 1.66, the “fold change (FC)” value (Salmonella typhimurium [19]) was 1.17 and the “fold change (FC)” value (Salmonella typhimurium [20]) was 7.95. For the same molecule, the “fold change (FC)” value (Salmonella typhimurium [21]) was 6.07, the “fold change (FC)” value (Salmonella typhimurium [22]) was 7.86 and the “fold change (FC)” value (Salmonella typhimurium [23]) was 2.28. For the same molecule, the “fold change (FC)” value (Salmonella typhimurium [24]) was 1.45, the “fold change (FC)” value (Salmonella typhimurium [25]) was 1.07 and the “fold change (FC)” value (Salmonella typhimurium [26]) was 0.72. The “fold change (FC)” value (Salmonella typhimurium [27]) was 1.28, the “fold change (FC)” value (Salmonella typhimurium [28]) was 1.66 and the “fold change (FC)” value (Salmonella typhimurium [29]) was 0.96. It also gave an IC50 (NIH3T3) greater than 1000 µM.

With `N#Cc1ccc(-c2csc(N/N=C/c3ccc(N4CCOCC4)cc3)n2)cc1` the IC50 [1] was 54 µM, the IC50 [2] was 42.9 µM and the “inhibition (INH)” value [3] was greater than 50%. For the same molecule, the Ratio IC50 (Homo sapiens) was 0.795 and the “inhibition (INH)” value [4] was greater than 50%.

With `Clc1ccc(-c2csc(N/N=C/c3ccc(N4CCCC4)cc3)n2)c(Cl)c1` the IC50 [1] was 103 µM, the IC50 [2] was 131 µM and the “inhibition (INH)” value [3] was greater than 50%. For the same molecule, the Ratio IC50 (Homo sapiens) was 1.26 and the “inhibition (INH)” value [4] was greater than 50%.

`Fc1ccc(-c2csc(N/N=C/c3ccc(N4CCCC4)cc3)n2)cc1` was tested, and the IC50 [1] was 13.1 µM, the IC50 [2] was 426 µM and the “inhibition (INH)” value [3] was greater than 50%. The Ratio IC50 (Homo sapiens) was 32.5 and the “inhibition (INH)” value [4] was greater than 50%.

`Cc1ccc(-c2csc(N/N=C/c3ccc(N4CCOCC4)cc3)n2)cc1` was tested, and the IC50 [1] was 10.4 µM, the IC50 [2] was greater than 1000 µM and the “inhibition (INH)” value [3] was greater than 50%. It also gave a Ratio IC50 (Homo sapiens) greater than 96.2.
